Measurements from ChEMBL document CHEMBL1201862, “PubChem BioAssay data set” (2004).
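48-hour exposure; five concentrations; linearly interpolated endpoints. GI50 is the concentration that inhibits growth by half.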 The source made the active and inactive calls. Cut-off read from the data, not from the text of the source: active = GI50 up to about 1.1 µM and inactive = higher.

Tests used:
Assay in all cases: DTP human tumour cell line panel, 48 h
[1] = tested on: OVCAR-4
[2] = tested on: CAKI-1
[3] = tested on: SNB-19
[4] = tested on: OVCAR-3
[5] = tested on: 786-0
[6] = tested on: RXF 393
[7] = tested on: HT-29
[8] = tested on: EKVX
[9] = tested on: SK-MEL-5
[10] = tested on: NCI-H522
[11] = tested on: HCT-116
[12] = tested on: SNB-75
[13] = tested on: MCF7
[14] = tested on: KM12
[15] = tested on: HOP-92
[16] = tested on: SK-OV-3
[17] = tested on: ACHN
[18] = tested on: SN12C
[19] = tested on: COLO 205

SMILES | GI50 [1] | GI50 [2] | GI50 [3] | GI50 [4] | GI50 [5] | GI50 [6] | GI50 [7] | GI50 [8] | GI50 [9] | GI50 [10] | GI50 [11] | GI50 [12] | GI50 [13] | GI50 [14] | GI50 [15] | GI50 [16] | GI50 [17] | GI50 [18] | GI50 [19]
CCSC1SC(c2ccccc2)(c2ccccc2)c2ccccc21 (stereo not drawn) | 55.1 µM (inactive) | 48.6 µM (inactive) | > 100 µM (inactive) | 23.8 µM (inactive) | 43.4 µM (inactive) | 19.5 µM (inactive) | 34.6 µM (inactive) | 51.3 µM (inactive) | 26.4 µM (inactive) | 43.5 µM (inactive) | 30.8 µM (inactive) | 87.9 µM (inactive) | 33.7 µM (inactive) | 38.5 µM (inactive) | 30.8 µM (inactive) | > 100 µM (inactive) | 44.7 µM (inactive) | 38.3 µM (inactive) | 35 µM (inactive)
C1=C(c2ccccc2)C(N2CCOCC2)Oc2ccccc21 (stereo not drawn) | > 100 µM (inactive) | > 100 µM (inactive) | > 100 µM (inactive) | > 100 µM (inactive) | > 100 µM (inactive) | > 100 µM (inactive) | > 100 µM (inactive) | > 100 µM (inactive) | > 100 µM (inactive) | > 100 µM (inactive) | > 100 µM (inactive) | 32.5 µM (inactive) | > 100 µM (inactive) | > 100 µM (inactive) | > 100 µM (inactive) | > 100 µM (inactive) | > 100 µM (inactive) | > 100 µM (inactive) | > 100 µM (inactive)
CCOC(=O)C(C(=O)OCC)=C1NC2(c3ccccc3Nc3ccccc32)C(C#N)S1 (stereo not drawn) | 4.3 µM (inactive) | 16.3 µM (inactive) | 12.6 µM (inactive) | 0.286 µM (active) | 10.4 µM (inactive) | 12.9 µM (inactive) | 4.21 µM (inactive) | 13.7 µM (inactive) | 10 µM (inactive) | 13.9 µM (inactive) | 9.89 µM (inactive) | 16.2 µM (inactive) | 3.39 µM (inactive) | 4.37 µM (inactive) | 4.34 µM (inactive) | 12.7 µM (inactive) | 14.9 µM (inactive) | 5.6 µM (inactive) | 6.75 µM (inactive)
CSc1ncc2c(C#N)c3[nH]c4ccccc4n3c(=O)c2n1 | 6.84 µM (inactive) | 22.8 µM (inactive) | 16.9 µM (inactive) | 6.7 µM (inactive) | 31.7 µM (inactive) | 7.53 µM (inactive) |  | 33.9 µM (inactive) | 10.6 µM (inactive) | 7.52 µM (inactive) | 13.1 µM (inactive) | 44.7 µM (inactive) | 19.7 µM (inactive) | 8.63 µM (inactive) | 4.2 µM (inactive) | 29.4 µM (inactive) | 33.1 µM (inactive) | 16 µM (inactive) | 17 µM (inactive)
O=C1C=CC(=O)c2ncccc21 | 5.16 µM (inactive) | 1.8 µM (inactive) | 6.17 µM (inactive) | 1.3 µM (inactive) | 2.71 µM (inactive) | 6.01 µM (inactive) | 4.57 µM (inactive) | 3.37 µM (inactive) | 6.5 µM (inactive) | 1.89 µM (inactive) | 1.89 µM (inactive) | 5.36 µM (inactive) | 4.42 µM (inactive) | 12.1 µM (inactive) | 1.63 µM (inactive) | 12.2 µM (inactive) | 2.63 µM (inactive) | 5.14 µM (inactive) | 2.58 µM (inactive)
CO[C@H]1C[C@H](O[C@H]2CC[C@]3(C=O)[C@H]4CC[C@]5(C)[C@@H](C6=CC(=O)OC6)CC[C@]5(O)[C@@H]4CC[C@]3(O)C2)O[C@H](C)[C@H]1O [CYMARIN] | 0.107 µM (active) | 0.102 µM (active) | 0.713 µM (active) | 0.146 µM (active) | 0.137 µM (active) | 0.0467 µM (active) | 0.233 µM (active) | 0.175 µM (active) | 0.0993 µM (active) | < 0.0393 µM (active) | 0.163 µM (active) | 0.4 µM (active) | 0.463 µM (active) | 0.402 µM (active) | 0.341 µM (active) | 0.114 µM (active) | 0.0912 µM (active) | 0.042 µM (active) | 0.618 µM (active)
S=C1NC(c2ccccc2)NC(c2ccccc2)S1 (stereo not drawn) | > 100 µM (inactive) | > 100 µM (inactive) | 55.5 µM (inactive) | > 100 µM (inactive) | > 100 µM (inactive) | > 100 µM (inactive) | 14.1 µM (inactive) | > 100 µM (inactive) | > 100 µM (inactive) | 41.6 µM (inactive) | > 100 µM (inactive) | > 100 µM (inactive) | 28.2 µM (inactive) | > 100 µM (inactive) | > 100 µM (inactive) | > 100 µM (inactive) | > 100 µM (inactive) | > 100 µM (inactive) | > 100 µM (inactive)
COc1cccc2c(=O)c3c(n(C)c12)OC(C(C)C)C3 (stereo not drawn) | 22.5 µM (inactive) | 42.8 µM (inactive) | 69.7 µM (inactive) | > 100 µM (inactive) | > 100 µM (inactive) | > 100 µM (inactive) | > 100 µM (inactive) | 89.5 µM (inactive) | 56.1 µM (inactive) | > 100 µM (inactive) | > 100 µM (inactive) | > 100 µM (inactive) | > 100 µM (inactive) | 99.5 µM (inactive) | > 100 µM (inactive) | > 100 µM (inactive) | 63 µM (inactive) | > 100 µM (inactive) | 74 µM (inactive)
O=C(Nc1ccc2[nH]c(C(=O)N3CC(CCl)c4c3cc([N+](=O)[O-])c3ccccc43)cc2c1)c1cc2ccccc2o1 (stereo not drawn) | > 100 µM (inactive) | > 100 µM (inactive) | > 100 µM (inactive) | > 100 µM (inactive) | > 100 µM (inactive) | > 1100 µM (inactive) | > 100 µM (inactive) | > 100 µM (inactive) | > 100 µM (inactive) | > 100 µM (inactive) | > 100 µM (inactive) | > 56.6 µM (inactive) | 23 µM (inactive) | > 100 µM (inactive) | > 58.5 µM (inactive) | > 100 µM (inactive) | 44.8 µM (inactive) | > 100 µM (inactive) | > 58.1 µM (inactive)
Cc1cccc(-c2cc(O)c3ccc(C)nc3n2)c1 | 10 µM (inactive) | 0.256 µM (active) | 0.506 µM (active) | 0.188 µM (active) | 0.43 µM (active) | 0.456 µM (active) | 0.198 µM (active) |  | 0.0895 µM (active) | 0.194 µM (active) | 0.297 µM (active) | 0.233 µM (active) | 0.443 µM (active) | 0.12 µM (active) | 1.14 µM (inactive) | 0.656 µM (active) | 0.711 µM (active) | 0.668 µM (active) | 0.14 µM (active)
CC(=O)O[C@H]1C(=O)[C@@]2(C)[C@H]([C@H](OC(=O)C3CCCCC3)[C@]3(O)C[C@H](OC(=O)[C@H](O)[C@@H](NC(=O)OC(C)(C)C)c4ccccc4)C(C)=C1C3(C)C)[C@]1(OC(C)=O)CO[C@@H]1C[C@@H]2O | 10.2 µM (inactive) |  | 0.0326 µM (active) | 0.00125 µM (active) | 0.0176 µM (active) | 0.0331 µM (active) | 0.00335 µM (active) | > 12.5 µM (inactive) | 0.0107 µM (active) | 0.00918 µM (active) | 0.00378 µM (active) | 0.402 µM (active) | 0.00259 µM (active) | 0.00731 µM (active) | 0.0148 µM (active) | 0.0151 µM (active) | 0.413 µM (active) | 0.0385 µM (active) | 0.013 µM (active)
C[C@]12CC[C@@H]3c4cc(C=O)c(OCc5ccccc5)cc4CC[C@H]3[C@@H]1CCC2OCc1ccccc1 (stereo partly drawn) | > 100 µM (inactive) | > 100 µM (inactive) |  | > 100 µM (inactive) | > 100 µM (inactive) | > 100 µM (inactive) | > 100 µM (inactive) | > 100 µM (inactive) | > 100 µM (inactive) | 80 µM (inactive) | > 100 µM (inactive) | > 100 µM (inactive) | > 100 µM (inactive) | > 100 µM (inactive) | > 100 µM (inactive) | > 100 µM (inactive) | 95.9 µM (inactive) | > 100 µM (inactive) | > 100 µM (inactive)
Cc1cc(S(=O)(=O)Nc2nnc3cnc4ccccc4n23)c(S)cc1Cl | > 100 µM (inactive) | > 100 µM (inactive) | 51.9 µM (inactive) | 98.9 µM (inactive) | > 100 µM (inactive) | > 100 µM (inactive) | > 100 µM (inactive) |  | > 41.7 µM (inactive) | > 100 µM (inactive) | > 100 µM (inactive) | > 54.5 µM (inactive) | > 100 µM (inactive) | > 83.6 µM (inactive) | 11.1 µM (inactive) | > 100 µM (inactive) | 6.73 µM (inactive) | > 100 µM (inactive) | > 100 µM (inactive)
O=C1NNC2NC(=O)C3(NN2C1=O)c1ccccc1-c1ccccc13 (stereo not drawn) | > 100 µM (inactive) | > 100 µM (inactive) | > 100 µM (inactive) | > 100 µM (inactive) | > 100 µM (inactive) | > 100 µM (inactive) | > 100 µM (inactive) | > 100 µM (inactive) | > 100 µM (inactive) | > 100 µM (inactive) | > 100 µM (inactive) | > 100 µM (inactive) | > 100 µM (inactive) |  | > 100 µM (inactive) | > 100 µM (inactive) | > 100 µM (inactive) | > 100 µM (inactive) | > 100 µM (inactive)
COC(=O)/C(=C\c1cn(C(C)=O)c2ccccc12)P(=O)(OC)OC | 14.6 µM (inactive) | 12.6 µM (inactive) | 18.1 µM (inactive) | 17.1 µM (inactive) | 17.6 µM (inactive) | 16.7 µM (inactive) | 16.1 µM (inactive) | 17 µM (inactive) | 13.4 µM (inactive) | 11.2 µM (inactive) | 13.9 µM (inactive) | 12 µM (inactive) | 13.6 µM (inactive) |  | 16.6 µM (inactive) | 19 µM (inactive) | 11.8 µM (inactive) | 14.8 µM (inactive) | 16.8 µM (inactive)
